# Target: T1, human HPK1 protein (Homo sapiens, UniProt Q92918)
# T1 construct: recombinant human HPK1 protein (a.a. 1-346) was expressed in Sf9 insect cells; GST (N); purchased Signalchem M23-11G; host or cells: Sf9 insect cells (baculovirus)
# T1 sequence (Q92918 1-346): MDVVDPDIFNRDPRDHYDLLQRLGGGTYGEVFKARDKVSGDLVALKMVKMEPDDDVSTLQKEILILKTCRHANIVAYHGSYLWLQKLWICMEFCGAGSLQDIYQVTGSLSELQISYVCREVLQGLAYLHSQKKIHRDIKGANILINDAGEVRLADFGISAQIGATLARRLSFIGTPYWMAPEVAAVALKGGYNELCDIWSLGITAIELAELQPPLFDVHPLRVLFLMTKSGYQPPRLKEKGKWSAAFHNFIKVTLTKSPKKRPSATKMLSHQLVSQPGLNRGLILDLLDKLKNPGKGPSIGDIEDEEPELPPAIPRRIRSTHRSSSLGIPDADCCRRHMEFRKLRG
# Experiment: Human HPK1 protein TR-FRET assay
# Assay type: biochemical
# Settings: 1 mM ATP, Table 19
# Description: Exemplary compounds from the above Examples were tested for ability to inhibit HPK1 using a human HPK1 protein TR-FRET Assay. Assay procedures and results are described below.
# N-terminal GST-tagged recombinant human HPK1 protein (a.a. 1-346) was expressed in Sf9 insect cells using a baculovirus expression system (Signalchem Catalog #M23-11G). The enzyme was diluted in assay buffer (50 mM Tris pH 7.5, 1 mM MgCl2, 0.01% NP-40 and 2 mM DTT) to obtain a 4× working solution at a concentration of 40 nM HPK1 enzyme.
# A 5 μM stock of ULight™ CREBtide peptide RRPSYRK (Perkin Elmer Product No. TRF0107-M) derived from human cAMP Response Element Binding (CREB) Protein was prepared in storage buffer containing 50 mM Tris-HCl (pH 7.4), 0.9% NaCl, 0.1% BSA, and 0.05% sodium azide. The CREBtide substrate was diluted in assay buffer (50 mM Tris pH 7.5, 1 mM MgCl2, 0.01% NP-40, 2 mM DTT) with 2 mM ATP to a final concentration of 200 nM CREBtide peptide to obtain a 2× working solution of substrate. HPK1 enzyme and CREBtide substrate solutions were mixed with compounds diluted in DMSO to obtain a final concentration of enzyme, substrate, and ATP of 10 nM, 100 nM, and 1 mM, respectively, in 1% DMSO. The final assay mixture was incubated at room temperature for 60 minutes.
# A solution of Europium-labeled anti-phospho-CREB (Ser133) antibody (Perkin Elmer Product No. TRF0200-M), EDTA and LANCE™ Detection Buffer (Perkin Elmer Product No. CR97-100) were added to each well to obtain a final concentration of 2 nM antibody, 10 mM EDTA and 1× LANCE buffer. The resulting mixture was incubated at room temperature for 60 minutes.
# The fluorescence resonance energy transfer (FRET) signal was measured on an Envision plate reader: Excitation filter=340 nm, APC emission=665 nm, Europium emission=615 nm, dichroic mirror=D400/D630, delay time=100 μs, and integration time=200 μs. The half maximal inhibitory concentration (IC50) values for compounds were calculated from the quotient of the fluorescence signal at 665 nm divided by the fluorescence signal at 615 nm. The quotient of the fluorescence signals in the presence of DMSO without compound is set as 100 percent enzymatic activity. A 4-parameter logistic model in PRISM (GraphPad) was used to calculate the IC50 for a given compound.
row,IC50 [µM],SMILES
1,< 0.5,"CCN1CCN(Cc2ccc(NC(=O)C3CCc4ccc(Oc5ncnn6cccc56)cc4C3)cc2C(F)(F)F)CC1 (stereo not shown) [compound 13, N-(4-((4-ethylpiperazin-1-yl)methyl)-3-(trifluoromethyl)phenyl)-7-(pyrrolo[2,1-f][1,2,4]triazin-4-yloxy)-1,2,3,4-tetrahydronaphthalene-2-carboxamide]"
2,0.5 to 5,CCN1CCN(Cc2ccc(NC(=O)N3CCc4cc(Oc5ccnc6[nH]ccc56)ccc4C3)cc2C(F)(F)F)CC1 [X-1]
3,< 0.5,Cc1cc2c(Oc3ccc4c(c3)[C@H](C)N(C(=O)Nc3ccc5c(N6CCN(C)CC6)cccc5c3)CC4)ccnc2[nH]1 [X-6]

# Continued, compound first:
row,SMILES,IC50 [µM]
1,CCC1c2cc(Oc3ccnc4[nH]ccc34)ccc2CCN1C(=O)Nc1ccc(CN2CCN(CC)CC2)c(C(F)(F)F)c1 (stereo not shown) [IV-24],0.5 to 5
2,CCN1CCN(Cc2ccc(NC(=O)N3CCc4ccc(Oc5ccnc6[nH]c(C)cc56)cc4[C@@H]3C)cc2C(F)(F)F)CC1 [V-29],< 0.5
3,CCN1CCN(Cc2ccc(NC(=O)N3CCc4ccc(Oc5c(C)cnc6[nH]ccc56)cc4C3)cc2C(F)(F)F)CC1 [III-6],0.5 to 5
4,CCN1CCN(Cc2ccc(NC(=O)N3Cc4cc(Oc5ncnc6[nH]c(C)cc56)cnc4C(C)C3)cc2C(F)(F)F)CC1 (stereo not shown) [VII-18],< 0.5
5,"CCC1CN(C(=O)Nc2ccc(CN3CCN(CC)CC3)c(C(F)(F)F)c2)Cc2cc(Oc3ccnc4[nH]c(C)cc34)cnc21 (single isomer, unassigned) [VII-23]",< 0.5
6,CCN1CCN(Cc2ccc(NC(=O)N3CCc4cc(F)c(Oc5ccnc6[nH]ccc56)cc4C3C)cc2C(F)(F)F)CC1 (stereo not shown) [IV-7],0.5 to 5
7,CCN1CCN(Cc2ccc(NC(=O)N3CCc4ccc(Oc5c(Cl)cnc6[nH]ccc56)cc4C3)cc2C(F)(F)F)CC1 [III-7],0.5 to 5
8,CCN1CCN(Cc2ccc(NC(=O)N3CCc4ccc(Oc5cc(NC(C)=O)ncn5)cc4C3)cc2C(F)(F)F)CC1 [II-9],< 0.5
9,CCN1CCN(Cc2ccc(NC(=O)N3CCc4ccc(Oc5ccnn6cc(C#N)cc56)cc4[C@@H]3C)cc2C(F)(F)F)CC1 [V-8],< 0.5
10,CCN1CCN(Cc2ccc(NC(=O)N3Cc4cc(Oc5ccnc6[nH]ccc56)ccc4C4(CC4)C3)cc2C(F)(F)F)CC1 [IV-23],< 0.5
11,C[C@H]1c2cc(Oc3ccnc4[nH]ccc34)ccc2CCN1C(=O)Nc1ccc(CN2CCN(CCO)CC2)c(C(F)F)c1 [V-18],< 0.5
12,CCN1CCN(Cc2ccc(NC(=O)N3CCc4ncc(Oc5ccnc6[nH]c(C)cc56)cc4C3C)cc2C(F)(F)F)CC1 (stereo not shown) [VIII-1],0.5 to 5
13,CCN1CCN(Cc2ccc(NC(=O)N3CCc4ccc(Oc5ccnc6[nH]c(=O)ccc56)cc4C3)cc2C(F)(F)F)CC1 [II-12],< 0.5
14,"Cc1cc2c(Oc3cnc4c(c3)CN(C(=O)Nc3cnc(OC5CCN(C)CC5)c(C(F)(F)F)c3)CC4C)ccnc2[nH]1 (single isomer, unassigned) [VII-7]",< 0.5
15,CCN1CCN(Cc2ccc(NC(=O)N3CCc4cc(F)c(Oc5ccnn6cccc56)cc4C3C)cc2C(F)(F)F)CC1 (stereo not shown) [IV-31],< 0.5
16,CCN1CCN(Cc2ccc(NC(=O)N3CCc4ccc(Oc5ncnc6[nH]ncc56)cc4C3)cc2C(F)(F)F)CC1 [II-5],< 0.5
17,CCN1CCN(Cc2ccc(NC(=O)N3CCc4cc(Br)c(Oc5ccnc6[nH]ccc56)cc4C3C)cc2C(F)(F)F)CC1 (stereo not shown) [IV-13],< 0.5
18,CCN1CCN(Cc2ccc(NC(=O)N3CCc4ccc(Oc5ccnc6[nH]c(C7CC7)cc56)cc4[C@@H]3C)cc2C(F)(F)F)CC1 [V-26],< 0.5

# Same assay, conditions: 1 mM ATP, Table 20
row,SMILES,IC50 [µM]
1,C[C@H]1c2cc(Oc3ccnc4[nH]c(C5(O)COC5)cc34)ccc2CCN1C(=O)Nc1ccc(CN2CCN(C)CC2)c(C(F)F)c1 [XIII-10],< 0.5
2,CCC1CN(C(=O)Nc2ccc(CN3CCN(CC)CC3)c(C(F)(F)F)c2)Cc2cc(Oc3ncnc4[nH]c(C)cc34)cnc21 (stereo not shown) [XIV-3],< 0.5
3,Cc1cc2c(Oc3cnc4c(c3)CN(C(=O)Nc3ccc(CN5CC6CCC(C5)N6)c(C(F)(F)F)c3)C[C@H]4C)ccnc2[nH]1 [XIV-101],0.5 to 5
4,CCC1CN(C(=O)Nc2ccc(CN3CCN(CC)CC3)c(C(F)(F)F)c2)Cc2cc(Oc3ccnc4[nH]c(C5CCOC5)cc34)cnc21 (stereo not shown) [XIV-63],< 0.5
5,CC[C@H]1CN(C(=O)Nc2ccc(CN3CCN(CCF)CC3)c(C(F)(F)F)c2)Cc2cc(Oc3ccnc4[nH]c(C(=O)N(C)C)cc34)cnc21 [XIV-138],< 0.5
6,CC[C@@H]1CN(C(=O)Nc2ccc(CN3CCN(C)CC3)c(C(F)(F)F)c2)Cc2cc(Oc3ccnc4[nH]c(C5(O)COC5)cc34)cnc21 [XIV-50],< 0.5
7,CCN1CCN(Cc2ccc(NC(=O)N3CCc4c(cc(F)cc4Oc4ncnn5cccc45)C3)cc2C(F)(F)F)CC1 [XI-2],0.5 to 5
8,CC[C@@H]1CN(C(=O)Nc2ccc(CN3CCNCC3)c(C(F)(F)F)c2)Cc2cc(Oc3ccnn4cc(C(=O)N(C)C)nc34)cnc21 [XIV-116],5 to 10
9,CN1CCN(Cc2ccc(NC(=O)N3Cc4cc(Oc5ccnc6[nH]ccc56)ccc4C(C(F)(F)F)C3)cc2C(F)(F)F)CC1 (stereo not shown) [XVIII-14],< 0.5
10,CCN1CCN(Cc2ccc(NC(=O)N3Cc4cc(Oc5ccnc6[nH]ccc56)ccc4C(C(F)(F)F)C3)cc2C(F)(F)F)CC1 (stereo not shown) [XVIII-15],< 0.5
11,CC[C@@H]1CN(C(=O)Nc2cnc(OC3CCN(C)CC3)c(C(F)(F)F)c2)Cc2cc(Oc3ccnc4[nH]c(CCOC)cc34)cnc21 [XIV-34],< 0.5
12,"CCN1CCN(Cc2ccc(NC(=O)N3Cc4cc(Oc5ccnc6[nH]c(-c7cnn(C)c7)nc56)cnc4C(C)C3)cc2C(F)(F)F)CC1 (single isomer, unassigned) [XIV-30]",< 0.5
13,"CCN1CCN(Cc2ccc(NC(=O)C3CCc4ncc(Oc5ccnc6[nH]ccc56)cc4C3)cc2C(F)(F)F)CC1 (stereo not shown) [compound 24, 3-((1H-Pyrrolo[2,3-b]pyridin-4-yl)oxy)-N-(4-((4-ethylpiperazin-1-yl)methyl)-3-(trifluoromethyl)phenyl)-5,6,7,8-tetrahydroquinoline-6-carboxamide]",< 0.5
14,"CCN1CCN(Cc2ccc(NC(=O)N3Cc4cc(Oc5ccnc6[nH]c(=O)ccc56)cnc4C(C)C3)cc2C(F)(F)F)CC1 (single isomer, unassigned) [XIV-2]",< 0.5
15,CC[C@@H]1CN(C(=O)Nc2cnc(CN3CCN(CC)CC3)c(C(F)(F)F)c2)Cc2cc(Oc3ccnc4[nH]c(CCOC)cc34)cnc21 [XIV-26],< 0.5
16,CC[C@@H]1CN(C(=O)Nc2ccc(CN3CCN(CC)CC3)c(C(F)(F)F)c2)Cc2cc(Oc3c(F)cnc4[nH]c(-c5cnn(C)c5)cc34)cnc21 [XIV-39],< 0.5
17,CCN1CCN(Cc2ccc(NC(=O)N3CCc4ccc(Oc5c(F)cnc6[nH]c(C7(O)COC7)cc56)cc4[C@@H]3C)cc2C(F)(F)F)CC1 [XIII-16],< 0.5
18,CN1CCN(Cc2ccc(NC(=O)N3CCc4ccc(Oc5c(F)cnc6[nH]c(C7(O)CC7)cc56)cc4C3)cc2C(F)(F)F)CC1 [XVIII-6],< 0.5
19,CN1CCN(Cc2ncc(NC(=O)N3CCc4ccc(Oc5c(F)cnc6[nH]c(-c7cccnc7)cc56)cc4C3)cc2C(F)(F)F)CC1 [XII-6],< 0.5
20,CCC1CN(C(=O)Nc2ccc(CN3CCN(CC)CC3)c(C(F)(F)F)c2)Cc2cc(Oc3ccnc4[nH]c(C5=CCOC5)cc34)cnc21 (stereo not shown) [XIV-62],< 0.5
21,C[C@H]1c2cc(Oc3ccnc4[nH]c(C5(O)COC5)cc34)ccc2CCN1C(=O)Nc1ccc(CN2CCNCC2)c(C(F)(F)F)c1 [XIII-7],< 0.5
22,CC[C@@H]1CN(C(=O)Nc2ccc(CN3CCN(C)CC3)c(C(F)F)c2)Cc2cc(Oc3ccnc4[nH]c(C#N)cc34)ccc21 [XV-18],< 0.5
23,CCN1CCN(Cc2ccc(NC(=O)N3CCc4ccc(Oc5ccnc6[nH]c(CO)cc56)cc4[C@@H]3C)cc2C(F)(F)F)CC1 [XIII-2],< 0.5
24,CN1CCN(Cc2ccc(NC(=O)N3CCc4ccc(Oc5c(F)cnc6[nH]c(-c7ccncc7)cc56)cc4C3)cc2C(F)(F)F)CC1 [XII-5],< 0.5
25,CC[C@H]1CN(C(=O)Nc2ccc(CN3CCNCC3)c(C(F)(F)F)c2)Cc2cc(Oc3ccnc4[nH]c(C5CC5)cc34)cnc21 [XIV-58],< 0.5

# — US20210139484A1, “DIHYDROISOQUINOLINE-2(1H)-CARBOXAMIDE AND RELATED COMPOUNDS AND THEIR USE IN TREATING MEDICAL CONDITIONS” (GOSSAMER BIO SERVICES, INC., priority 2018, published 2021)
